What was measured:
KB-31 cells = assay: In vitro cell growth inhibition assay (methylene blue); assay type: cell-based, human; conditions: read-out: concentration half-maximally inhibiting proliferation
Method: Anti-proliferative assays are performed basically as described (Meyer et al., Int. J. Cancer 43:851 (1989)). Briefly, cells are seeded at 1.5×10^3 cells/well into 96-well microtiter plates and allowed to adhere by incubation overnight. Compounds are added in serial dilutions on day 1. The plates are then incubated for an additional 3 days, after which the cells are fixed with 3.3% v/v glutaraldehyde, washed with water and stained with 0.05% w/v methylene blue according to conventional methods. After washing, the dye is eluted with 3% HCl and the optical density measured at 665 nm with a SpectraMax Plus (Molecular Devices, Sunnyvale, Calif.) according to manufacturers instructions. IC50 values are determined by mathematical curve-fitting using the SoftPro2.6.1 program (Molecular Devices, Sunnyvale, Calif.) using the formula (OD treated−OD start)/(OD control−OD start)×100. […] IC50 determinations with the cell line 298/D4/40 are performed in the presence of 40 nM epothilone A.
The epothilone resistant cell lines, EpoA320-80C, EpoA320/ND, 298/D4/40, 297/C5/0 and 315/sc5.9 are generated as disclosed above. […] A subclone, 298/D4/40, is adapted to grow in the presence of 40 nM epothilone A administered twice weekly (i.e. at every medium change). […]

EA40 cells = assay: MTS growth inhibition assay; assay type: cell-based; conditions: EA40 cells, MTS, 72 hours drug; Table 1
Method: Growth inhibition may be analyzed using conventional methods, for example a MTS assay (PROMEGA, Wis.) may be used. In this assay approximately 4000 cells per well are seeded in 96 well plates in MEM supplemented with 10% fetal calf serum and incubated at 37° C. in 5.0% CO2. After 24 hours, dilutions of drug (concentration range used is between 1 nM and 1000 nM) are added and cells are allowed to incubate with drug for an additional 72 hours. The MTS reagent mixed with PMS (MTS:PMS 20:1 according to manufacturer's instructions) is then added and absorbance quantitated using a Thermomax microplate reader system according to conventional methods (Molecular Devices, Sunnyvale, Calif.). […] Six assays per drug per plate are performed. […]
As such, epothilone resistant cells would have some degree of cross-resistance to other P-gp substrates that could be reversed by P-gp inhibitors. To investigate this possibility, the cytotoxicity of the P-gp substrates, vincristine, doxorubicine and vinblastine is determined against epothilone A resistant cells using the MTS assay. […] When EA20 and resistant MDA/T0.3 cells are incubated with TAXOL® or epothilone A in the presence of [3′-Desoxy-3′-oxo-MeBmt]^1-[Val]^2-Ciclosporin (PSC-833; a P-gp inhibitor which is disclosed in U.S. Pat. No. 5,525,590), the resistance of MDA/T0.3 cells to TAXOL® is reversed but no effect on the resistance of EA20 to epothilone A is observed.

Q: With `C/C(=C\c1csc(C)n1)[C@@H]1C[C@@H]2O[C@@H]2CCC[C@H](C)[C@H](O)[C@@H](C)C(=O)C(C)(C)[C@@H](O)CC(=O)O1` [Epothilone A, epothilone A] as the compound, how does the IC50 (KB-31 cells) read?
A: 3.2 nM

Q: And the IC50 (EA40 cells)?
A: 36 ± 2 nM

Source: patent publication US20070134744A1, “Epothilone resistant cell lines” (priority 2000, published 2007)
